Reference: patent US20230041743A1, “1,8-NAPHTHYRIDIN-2-ONE COMPOUNDS FOR THE TREATMENT OF AUTOIMMUNE DISEASE” (Hoffmann-La Roche Inc., priority 2019, published 2023)

These compounds were tested against T1, human TLR9 (Homo sapiens, UniProt Q9NR96) (assay: HEK293-Blue-hTLR-9 cells assay (SEAP reporter, ODN2006 stimulation)). Conditions: HEK293-Blue-hTLR9 cells, ODN2006 ligand, 20 hrs incubation; read-out: HEK/hTLR9 IC50.
T1 construct: host or cells: HEK293 (HEK-Blue hTLR9)
T1 sequence (Q9NR96 26-1032): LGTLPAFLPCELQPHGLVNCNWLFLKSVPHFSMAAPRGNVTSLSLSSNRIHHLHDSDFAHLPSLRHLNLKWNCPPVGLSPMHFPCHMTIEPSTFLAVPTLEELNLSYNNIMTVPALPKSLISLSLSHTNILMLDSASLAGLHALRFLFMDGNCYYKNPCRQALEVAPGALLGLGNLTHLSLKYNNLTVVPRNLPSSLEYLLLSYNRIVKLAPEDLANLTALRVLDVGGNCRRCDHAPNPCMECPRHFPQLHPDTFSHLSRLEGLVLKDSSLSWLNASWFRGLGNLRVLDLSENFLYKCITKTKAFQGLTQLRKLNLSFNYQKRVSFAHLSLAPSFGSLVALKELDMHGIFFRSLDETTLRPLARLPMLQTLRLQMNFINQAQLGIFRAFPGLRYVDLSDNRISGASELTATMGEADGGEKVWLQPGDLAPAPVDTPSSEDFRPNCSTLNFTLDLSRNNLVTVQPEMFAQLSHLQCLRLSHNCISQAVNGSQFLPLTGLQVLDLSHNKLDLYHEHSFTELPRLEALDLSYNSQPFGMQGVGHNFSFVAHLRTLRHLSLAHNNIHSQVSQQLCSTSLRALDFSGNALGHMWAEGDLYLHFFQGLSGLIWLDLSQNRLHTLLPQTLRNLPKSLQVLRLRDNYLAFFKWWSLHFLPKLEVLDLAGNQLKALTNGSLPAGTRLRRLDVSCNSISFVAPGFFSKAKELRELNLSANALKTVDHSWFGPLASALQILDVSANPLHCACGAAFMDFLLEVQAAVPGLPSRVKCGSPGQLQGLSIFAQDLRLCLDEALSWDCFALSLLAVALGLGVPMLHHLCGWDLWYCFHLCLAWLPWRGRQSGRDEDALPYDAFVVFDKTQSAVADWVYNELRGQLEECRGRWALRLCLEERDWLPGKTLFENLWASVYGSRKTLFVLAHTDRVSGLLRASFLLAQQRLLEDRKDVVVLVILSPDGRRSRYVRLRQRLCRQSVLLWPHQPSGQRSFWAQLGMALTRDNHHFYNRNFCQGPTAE
Assay type: cell-based
Text: HEK293-Blue-hTLR-9 Cells Assay:
A stable HEK293-Blue-hTLR-9 cell line was purchased from InvivoGen (Cat. #: hkb-htlr9, San Diego, Calif., USA). These cells were originally designed for studying the stimulation of human TLR9 by monitoring the activation of NF-κB. A SEAP (secreted embryonic alkaline phosphatase) reporter gene was placed under the control of the IFN-β minimal promoter fused to five NF-κB and AP-1-binding sites. The SEAP was induced by activating NF-κB and AP-1 via stimulating HEK-Blue hTLR9 cells with TLR9 ligands. Therefore the reporter expression was declined by TLR9 antagonist under the stimulation of a ligand, such as ODN2006 (Cat. #: tlrl-2006-1, Invivogen, San Diego, Calif., USA), for incubation of 20 hrs. The cell culture supernatant SEAP reporter activity was determined using QUANTI-Blue™ kit (Cat. #: rep-qb1, Invivogen, San Diego, Calif., USA) at a wavelength of 640 nm, a detection medium that turns purple or blue in the presence of alkaline phosphatase.
HEK293-Blue-hTLR9 cells were incubated at a density of 250,000˜450,000 cells/mL in a volume of 170 μL in a 96-well plate in Dulbecco's Modified Eagle's medium (DMEM) containing 4.5 g/L glucose, 50 U/mL penicillin, […], 2 mM L-glutamine, 10% (v/v) heat-inactivated fetal bovine serum with addition of 20 μL test compound in a serial dilution in the presence of final DMSO at 1% and 10 μL of 20 uM ODN2006 in above DMEM, perform incubation under 37° C. in a CO2 incubator for 20 hrs. Then 20 μL of the supernatant from each well was incubated with 180 μL Quanti-blue substrate solution at 37° C. for 2 h and the absorbance was read at 620˜655 nm using a spectrophotometer. The signaling pathway that TLR9 activation leads to downstream NF-κB activation has been widely accepted, and therefore similar reporter assay was modified for evaluating TLR9 antagonist.
`C[C@@H]1CN(c2cc(=O)n(C)c3ncccc23)C[C@@H]2c3ccc(N4C[C@H]5C[C@@H]4CN5)cc3CN12` [Example 20, 4-[(4R,10bS)-8-[(1R,4R)-2,5-diazabicyclo[2.2.1]heptan-2-yl]-4-methyl-3,4,6,10b-tetrahydro-1H-pyrazino[2,1-a]isoindol-2-yl]-1-methyl-1,8-naphthyridin-2-one] gave an IC50 of 0.096 µM.
`C[C@@H]1CN(c2cc(=O)n(C)c3ncccc23)C[C@@H]2c3ccc(N4CC5CCC(C4)N5)cc3CN12` [Example 21, 4-[(4R,10bS)-8-(3,8-diazabicyclo[3.2.1]octan-3-yl)-4-methyl-3,4,6,10b-tetrahydro-1H-pyrazino[2,1-a]isoindol-2-yl]-1-methyl-1,8-naphthyridin-2-one] showed an IC50 of 0.138 µM.
For `C[C@@H]1CN(c2cc(=O)n(C)c3ncccc23)C[C@@H]2c3ccc(N4CCOC[C@H](N)C4)cc3CN12` [Example 22, 4-[(4R,10bS)-8-[(6R)-6-amino-1,4-oxazepan-4-yl]-4-methyl-3,4,6,10b-tetrahydro-1H-pyrazino[2,1-a]isoindol-2-yl]-1-methyl-1,8-naphthyridin-2-one], the IC50 was 0.113 µM.
Compound `C[C@@H]1CN(c2cc(=O)n(C)c3ncccc23)C[C@@H]2c3ccc(OCCN(C)C)cc3CN12` [Example 23, 4-[(4R,10bS)-8-[2-(dimethylamino)ethoxy]-4-methyl-3,4,6,10b-tetrahydro-1H-pyrazino[2,1-a]isoindol-2-yl]-1-methyl-1,8-naphthyridin-2-one] has an IC50 of 0.213 µM.
With `C[C@@H]1CN(c2cc(=O)n(C)c3ncccc23)C[C@@H]2c3ccc(C4CCNCC4)cc3CN12` [Example 24, 4-[(4R,10bS)-4-methyl-8-(4-piperidyl)-3,4,6,10b-tetrahydro-1H-pyrazino[2,1-a]isoindol-2-yl]-1-methyl-1,8-naphthyridin-2-one] the IC50 was 0.156 µM.
Work on `C[C@@H]1CN(c2cc(=O)n(C)c3ncccc23)C[C@@H]2c3ccc(C4CCCNC4)cc3CN12` (stereo partly drawn) [Example 25, 4-[(4R,10bS)-4-methyl-8-(3-piperidyl)-3,4,6,10b-tetrahydro-1H-pyrazino[2,1-a]isoindol-2-yl]-1-methyl-1,8-naphthyridin-2-one] yielded an IC50 of 0.124 µM.
For `C[C@@H]1CN(c2cc(=O)n(C)c3ncccc23)C[C@@H]2c3ccc(C4CCNC4)cc3CN12` (stereo partly drawn) [Example 26, 4-[(4R,10bS)-4-methyl-8-pyrrolidin-3-yl-3,4,6,10b-tetrahydro-1H-pyrazino[2,1-a]isoindol-2-yl]-1-methyl-1,8-naphthyridin-2-one], the IC50 was 0.132 µM.
`C[C@@H]1CN(c2cc(=O)n(C)c3ncccc23)C[C@@H]2c3ccc([C@H]4CC[C@H](N5CCOCC5)CC4)cc3CN12` [Example 27A, 4-[(4R,10bS)-4-methyl-8-(trans-4-morpholinocyclohexyl)-3,4,6,10b-tetrahydro-1H-pyrazino[2,1-a]isoindol-2-yl]-1-methyl-1,8-naphthyridin-2-one] was tested, and the IC50 was 0.099 µM.
Compound `C[C@@H]1CN(c2cc(=O)n(C)c3ncccc23)C[C@@H]2c3ccc([C@H]4CC[C@@H](N5CCOCC5)CC4)cc3CN12` [Example 27B, 4-[(4R,10bS)-4-methyl-8-(cis-4-morpholinocyclohexyl)-3,4,6,10b-tetrahydro-1H-pyrazino[2,1-a]isoindol-2-yl]-1-methyl-1,8-naphthyridin-2-one] has an IC50 of 0.105 µM.
`C[C@@H]1CN(c2cc(=O)n(C)c3ncccc23)C[C@@H]2c3ccc([C@H]4C[C@H]5COC[C@@H](C4)N5)cc3CN12` [Example 28A, 4-[(4R,10bS)-4-methyl-8-(endo-3-oxa-9-azabicyclo[3.3.1]nonan-7-yl)-3,4,6,10b-tetrahydro-1H-pyrazino[2,1-a]isoindol-2-yl]-1-methyl-1,8-naphthyridin-2-one] gave an IC50 of 0.153 µM.
In the case of `C[C@@H]1CN(c2cc(=O)n(C)c3ncccc23)C[C@@H]2c3ccc([C@@H]4C[C@H]5COC[C@@H](C4)N5)cc3CN12` [Example 28B, 4-[(4R,10bS)-4-methyl-8-(exo-3-oxa-9-azabicyclo[3.3.1]nonan-7-yl)-3,4,6,10b-tetrahydro-1H-pyrazino[2,1-a]isoindol-2-yl]-1-methyl-1,8-naphthyridin-2-one], the IC50 is reported as 0.255 µM.
`CCn1c(=O)cc(N2C[C@@H](C)N3Cc4cc(N5C[C@@H](N)[C@H](OC)C5)ccc4[C@H]3C2)c2cccnc21` [Example 29, 4-[(4R,10bS)-8-[(3R,4R)-3-amino-4-methoxy-pyrrolidin-1-yl]-4-methyl-3,4,6,10b-tetrahydro-1H-pyrazino[2,1-a]isoindol-2-yl]-1-ethyl-1,8-naphthyridin-2-one] gave an IC50 of 0.34 µM.
